Legend:
human liver GK = target: T1, human liver GK (Homo sapiens, UniProt P35557); assay: GK activation test; format: biochemical; conditions: GST-fused human liver GK, 4 mM glucose, 2 mM ATP, absorbance at 405 nm after 15 minutes; read-out: EC50 (test compound concentration needed to activate 50% of the maximum activation ability)
T1 construct: GST (glutathione S-transferase) (N); made in house; host or cells: E. coli
T1 sequence (P35557 1-466 isoform P35557-2): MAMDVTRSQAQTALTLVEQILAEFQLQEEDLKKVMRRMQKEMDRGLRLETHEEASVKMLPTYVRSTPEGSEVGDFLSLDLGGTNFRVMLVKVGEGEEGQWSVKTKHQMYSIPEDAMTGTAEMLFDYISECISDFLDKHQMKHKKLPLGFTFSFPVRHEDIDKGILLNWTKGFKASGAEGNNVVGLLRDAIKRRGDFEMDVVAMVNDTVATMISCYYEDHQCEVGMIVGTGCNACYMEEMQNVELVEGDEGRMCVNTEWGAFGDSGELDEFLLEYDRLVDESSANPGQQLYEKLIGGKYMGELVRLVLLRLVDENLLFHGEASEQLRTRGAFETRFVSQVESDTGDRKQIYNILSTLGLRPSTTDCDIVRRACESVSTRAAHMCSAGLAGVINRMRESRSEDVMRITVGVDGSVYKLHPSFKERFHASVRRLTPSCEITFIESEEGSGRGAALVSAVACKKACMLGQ
Protocol: The GK activation test for the test compounds was carried out by the method of Van Schaftingen et al. (Eur. J. Biochem. 179:179-184, 1989) with partial modifications. The GK activity was measured by the change in the absorbance based on an amount of thio-NADH, which is a reduced form product converted from thio-NAD+ (thionicothinamide-adeninedinucleotide) when dehydrogenating glucose 6-phosphate, produced by GK using glucose as a matrix, with G6PDH (glucose-6-phosphate dehydrogenase).
The enzyme source used in this assay, human liver GK, was expressed in E. coli as a fusion protein with GST (glutathione S-transferase) added to the amino terminus and was purified using Glutathione Sepharose 4B (Amersham Biosciences).
The test was carried out using flat-bottom 96-well half area microplates (Corning). A solution of the test compound in dimethyl sulfoxide (DMSO) at a final concentration of 1% in DMSO and DMSO as a control were added to each well of the plates. Further, 25 mM Hepes-KOH (pH=7.1), 25 mM KCl, 2 mM MgCl2, 2 mM thio-NAD+, 4 mM glucose, 1 mM DTT (dithiothreitol), 0.01 units/μL G6PDH and 2 μg/mL human liver GK were added as the final concentrations, respectively, to each of the wells. Subsequently, ATP was added to each of the wells to give the final concentration of 2 mM, and the reaction was started. The microplates were allowed to stand at room temperature. After 15 minutes from the start of reaction, the absorbance at 405 nm was measured using an absorption spectrometer for microplate.
The GK activity maximally activated by the test compound was taken as the maximum activation ability, and the test compound concentration (nM) needed to activate 50% of that maximum activation ability was expressed as EC50.

C57BL6/J mice = assay: Hypoglycemia test using C57BL6/J mice; format: in vivo; conditions: oral, ad libitum fed C57BL6/J mice, plasma glucose AUC 0-6 hours vs control group
Protocol: The test to verify the hypoglycemic effect of the test compounds was carried out in accordance with a method commonly used and represented by the method of Grimsby et. al (Science 301: 370-373, 2003).
The body weight of C57BL6/J mice (N=6), who were ad libitum fed before the test, was measured. The test compound was suspended or dissolved in the base to be administered (0.5% methyl cellulose) at a concentration of 0.06 to 20 mg/mL. The mice were orally administered with 5 mL/kg of a drug solution (equivalent to 0.3 to 100 mg/kg of the test compound) or control (only the base to be administered). About 60 μL of blood was collected from the tail vein using a capillary tube immediately before administration of the test compound and 0.5, 1, 2, 4 and 6 hours after administration of the test compound. The collected blood was centrifuged and subsequently measured for the plasma glucose concentration. The area under the curve (AUC) was calculated from changes over time in the plasma glucose concentration after administration of the test compound, and a reduction rate (%) to AUC of the control group was calculated. The dose at which an AUC decreasing percentage was 20% (ED20 value; mg/kg) was calculated from the dose response curve having the AUC reduction rate plotted on the vertical axis and the dose plotted on the horizontal axis.

| SMILES | EC50 (human liver GK) [nM] | ED20 (dose at which the plasma glucose AUC decreasing percentage was 20%) (C57BL6/J mice) [mg/kg] |
| --- | --- | --- |
| CC(F)(F)c1ccc([C@@H](C[C@H]2CCC(=O)N2)c2ccc(C3CC3)c(=O)[nH]2)cc1 (single isomer, unassigned) [Compound B] | 1330 | 15.6 |
| CCc1ccc([C@@H](C[C@H]2CCC(=O)N2)c2ccc(C3CC3)c(=O)[nH]2)cc1 [Compound A] | 520 | 11.5 |
| O=C1CC[C@H](C[C@H](c2ccc(C(F)F)cc2)c2ccc(C3CC3)c(=O)[nH]2)N1 [Compound C] | 597 | 32.0 |
| CC(F)(F)c1ccc([C@@H](C[C@H]2CCC(=O)N2)c2ccc(C3CC3)c(=O)[nH]2)cc1 [Compound [1], 3-cyclopropyl-6-{(1R)-1-[4-(1,1-difluoroethyl)phenyl]-2-[(2R)-5-oxopyrrolidin-2-yl]ethyl}pyridin-2(1H)-one] | 295 | 4.2 |

— patent US9695148B2, “2-pyridone compound” (TAISHO PHARMACEUTICAL CO., LTD., priority 2012, dated 2017)
